The values below come from US12391706B2, “Multi-target tyrosine kinase inhibitor” (SHENZHEN NEPTUNUS PHARMACEUTICAL RESEARCH INSTITUTE CO., …, priority 2020, dated 2025).

Series [1] can be described thus: In vivo transformation / pharmacokinetic study in SD rats. To be noted: for time to almost complete conversion into td32-4 in vivo: oral 200 mg·kg^−1. The text has this:
The compounds of the present invention have improved solubility by introducing a hydrophilic functional group into the structure of td32-4 through an ester bond. After oral administration, the compounds need to be converted into td32-4 in the physical and chemical environment in vivo to exert pharmacological effects. In this example, some representative compounds were selected for in vivo pharmacokinetic studies in SD rats, and compared with direct oral administration of td32-4. The experiment was performed at high (200 mg·kg^−1) and low (10 mg·kg^−1) doses. 5 mg of the test sample was placed into a glass bottle. 1 mL of DMA (dimethylacetamide) was added and vortexed to dissolve the solid completely. 1.5 mL of PEG400 was added, vortexed and mixed well. 2.5 mL of physiological saline for injection was added, vortexed, mixed well. The mixture was filtered with a filter membrane (PALL, Nylon, 0.45 μm) to obtain a colorless and clear solution. The test sample was administered to experimental animals (n=3) by tail vein injection at a dose of 5 mg·kg^−1 (1 mg·mL^−1). An appropriate amount of the test sample was placed into a glass bottle. PEG400 was added, vortexed and mixed well. The mixture was sonicated to obtain a clear solution. The test sample was administered to experimental animals (n=3) by gavage at a dose of 10 mg·kg^−1 and 200 mg·kg^−1, respectively. SD rats were weighed before administration, and the dose was calculated according to the body weight. They were administered by intravenous injection or by gavage. Blood was collected through the submandibular vein or other suitable ways, at intervals of 0, 0.083, 0.25, 0.5, 1, 2, 4, 8, 12, 24 hours. About 0.20 mL of each sample was collected, anticoagulated with EDTA-K2, and placed on ice after collection, and centrifuged within 1 hour to separate plasma (centrifugation conditions: 6800 g, 6 minutes, 2-8° C.). Plasma samples were stored in a −80° C. freezer prior to analysis. The blood drug concentration of each sample was analyzed using LC-MS/MS. […]

The nature of series [2]: Solubility test (water), Chinese Pharmacopoeia 2015. It counts as physicochemical. To be noted: 25° C.±2° C., dissolution within 30 minutes. The procedure: The series of compounds synthesized in Examples 1-24 were subjected to solubility test (water), according to the solubility test methods in Chinese Pharmacopoeia, 2015 Edition. The specific test operations and evaluation criteria are as follows: An appropriate amount (1 mg-10 mg) of finely powdered compound was weighed, placed in a certain volume of solvent at 25° C.±2° C., and shaken vigorously for 30 seconds every 5 minutes; the dissolution within 30 minutes was observed. It was considered completely dissolved if there were no visible particles or droplets of the solute. [table]

Series [3] deals with H82. Briefly: H82 nude mouse xenograft model. The settings on record: 50 mg/kg * 14 d, i.g, QD. Format: in vivo. The method, then: (§1) Test method: 5×10^6 MKN-45 gastric cancer cells were inoculated under the fat pad of the right rib of nude mice, and the tumor formation was observed. Two weeks after the inoculation, the tumor-bearing mice were divided into groups and orally administered with td32-4, td32-4P3, td32-4P6, td32-4P9, and td32-4P10 at a dose of 100 mg·kg^−1, once a day for 14 days, respectively. Tumor volumes were measured with a caliper and recorded.
(§2) The compound td32-4P10 was selected for in vivo activity evaluation. The tumor inhibitory activity data of td32-4P10 were tested in MV-4-11, H358 and H82 nude mouse xenograft model, respectively. Meanwhile, the changes in tumor volume during the treatment, and the changes in body weight of the nude mice induced by the drug during the treatment were measured. After the treatment, the tumor weights were counted. The tumor anatomical images after the treatment were recorded.

The subject of series [4] is MKN-45 gastric cancer cells. Briefly: Gastric cancer cell MKN45 xenograft model. It counts as in vivo, nude mice. To be noted: oral 100 mg·kg^−1 once a day for 14 days.
Text: • 1. Compounds (td32-4, td32-4P3, td32-4P6, td32-4P9, td32-4P10) were selected for in vivo activity evaluation at a single concentration. The animal model was gastric cancer cell MKN45 xenograft model.
as §1

For series [5], the system named is H358. Briefly: H358 nude mouse xenograft model. To be noted: 50 mg/kg * 21 d, i.g, QD. It counts as in vivo. The procedure:
as §1, §2

The subject of series [6] is MV-4-11. Kind of series: MV-4-11 nude mouse xenograft model. The settings on record: MV-4-11 xenograft, 50 mg/kg * 21 d, i.g, QD. It counts as in vivo. The method, then: as §1, §2
Series [7] concerns the target c-Met (Homo sapiens, UniProt P08581). To be noted: cited from earlier work.
The test system of series [8] is multiple tumor cell models. The settings on record: cited from earlier work.
The conditions of series [9]: low dose (10 mg·kg^−1), solution; cited from earlier work.
Series [10] has as its system VEGFR. To be noted: cited from earlier work.
For series [11] the following is noted: cited from earlier work.
Series [12] addresses c-Kit (Homo sapiens, UniProt P10721). The settings on record: cited from earlier work.

c-Met, sequence (P08581 25-1390): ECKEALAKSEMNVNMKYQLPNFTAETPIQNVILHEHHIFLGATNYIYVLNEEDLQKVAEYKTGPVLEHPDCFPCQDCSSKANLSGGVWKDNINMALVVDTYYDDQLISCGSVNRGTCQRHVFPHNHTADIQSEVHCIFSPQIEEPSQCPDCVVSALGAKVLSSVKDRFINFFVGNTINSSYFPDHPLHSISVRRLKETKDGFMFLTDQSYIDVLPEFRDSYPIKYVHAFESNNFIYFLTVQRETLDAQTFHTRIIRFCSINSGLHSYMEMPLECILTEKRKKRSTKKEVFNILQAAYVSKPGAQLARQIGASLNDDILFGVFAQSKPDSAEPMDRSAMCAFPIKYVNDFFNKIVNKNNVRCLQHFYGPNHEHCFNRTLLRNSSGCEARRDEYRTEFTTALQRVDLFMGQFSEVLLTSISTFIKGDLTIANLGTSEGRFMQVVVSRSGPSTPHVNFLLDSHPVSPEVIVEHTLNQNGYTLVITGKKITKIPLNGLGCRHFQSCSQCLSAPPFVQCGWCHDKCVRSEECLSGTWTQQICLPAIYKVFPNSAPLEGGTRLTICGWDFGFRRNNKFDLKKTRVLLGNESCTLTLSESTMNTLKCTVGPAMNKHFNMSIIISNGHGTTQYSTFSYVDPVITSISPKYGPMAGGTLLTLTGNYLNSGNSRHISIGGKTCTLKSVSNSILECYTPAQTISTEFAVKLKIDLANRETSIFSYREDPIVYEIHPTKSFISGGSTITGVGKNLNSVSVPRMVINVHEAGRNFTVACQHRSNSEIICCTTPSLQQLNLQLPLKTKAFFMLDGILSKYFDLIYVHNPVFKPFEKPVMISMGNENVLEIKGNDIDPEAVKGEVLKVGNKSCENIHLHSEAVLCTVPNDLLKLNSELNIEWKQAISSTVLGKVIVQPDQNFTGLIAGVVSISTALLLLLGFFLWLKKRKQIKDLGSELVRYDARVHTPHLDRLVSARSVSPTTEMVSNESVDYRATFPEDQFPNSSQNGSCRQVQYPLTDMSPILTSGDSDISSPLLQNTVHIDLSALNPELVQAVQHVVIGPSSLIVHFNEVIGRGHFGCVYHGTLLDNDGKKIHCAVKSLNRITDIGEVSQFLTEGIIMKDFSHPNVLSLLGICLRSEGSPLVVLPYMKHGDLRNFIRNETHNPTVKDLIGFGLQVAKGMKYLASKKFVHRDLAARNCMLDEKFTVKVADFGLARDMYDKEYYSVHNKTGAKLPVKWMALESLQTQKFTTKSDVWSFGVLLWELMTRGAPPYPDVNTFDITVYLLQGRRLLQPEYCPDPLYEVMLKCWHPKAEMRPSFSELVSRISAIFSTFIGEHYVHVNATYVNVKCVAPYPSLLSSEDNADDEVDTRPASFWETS
c-Kit, sequence (P10721 26-976): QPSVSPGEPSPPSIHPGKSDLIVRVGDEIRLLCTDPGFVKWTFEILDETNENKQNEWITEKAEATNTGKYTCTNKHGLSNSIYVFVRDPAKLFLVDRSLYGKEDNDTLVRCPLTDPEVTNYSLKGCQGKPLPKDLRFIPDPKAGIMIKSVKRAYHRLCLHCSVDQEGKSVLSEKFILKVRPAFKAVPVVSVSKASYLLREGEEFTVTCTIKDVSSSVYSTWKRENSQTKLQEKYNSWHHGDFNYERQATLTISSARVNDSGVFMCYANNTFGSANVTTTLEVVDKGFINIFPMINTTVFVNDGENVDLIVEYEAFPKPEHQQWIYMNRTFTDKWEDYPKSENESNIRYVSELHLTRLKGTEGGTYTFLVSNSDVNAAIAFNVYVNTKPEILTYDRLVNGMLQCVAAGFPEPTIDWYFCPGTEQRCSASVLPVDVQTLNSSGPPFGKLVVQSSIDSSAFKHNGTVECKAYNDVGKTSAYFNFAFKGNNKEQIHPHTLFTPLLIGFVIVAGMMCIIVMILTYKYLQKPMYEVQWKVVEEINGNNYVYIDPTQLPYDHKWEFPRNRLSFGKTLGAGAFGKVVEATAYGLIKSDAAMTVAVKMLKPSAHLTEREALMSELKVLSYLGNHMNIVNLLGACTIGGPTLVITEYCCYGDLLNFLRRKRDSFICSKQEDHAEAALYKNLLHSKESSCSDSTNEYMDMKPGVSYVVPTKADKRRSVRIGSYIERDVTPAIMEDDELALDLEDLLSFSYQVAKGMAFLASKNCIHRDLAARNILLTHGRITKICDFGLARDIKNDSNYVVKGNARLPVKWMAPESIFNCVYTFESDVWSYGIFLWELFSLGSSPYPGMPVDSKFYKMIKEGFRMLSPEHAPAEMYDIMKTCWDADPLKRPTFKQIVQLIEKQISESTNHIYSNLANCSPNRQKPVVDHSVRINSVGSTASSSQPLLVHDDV

Take `CC(C)C(N)C(=O)OCCn1cc(-c2cc3nccc(Oc4ccc(NC(=O)C5(C(=O)Nc6ccc(F)cc6)CC5)cc4F)c3s2)cn1` (centres unmarked) [td32-4P10, 2-(4-(7-(2-fluoro-4-(1-((4-fluorophenyl)carbamoyl)cyclopropane-1-carboxamide)phenoxy)thieno[3,2-b]pyridin-2-yl)-1H-pyrazolyl-1-yl)ethyl valinate]: in series [1], the “time to almost complete conversion into td32-4 in vivo” value is ≤ 18 h. Further, the “Water solubility test Result” value in series [2] is recorded as “C (1 g of solute is soluble in 10~30 mL of sovent)”. Further, the “T/C (%)” value in series [3] is 11%; in series [5], 6.6%; in series [6], 3.4%. In addition, the “TGI (%)” value in [3] was determined as 92%; in [5] it was 112%; in [6], 109%. Further, the “tumor inhibitory effect (tumor volume)” value in series [4] is reported as “potent tumor inhibitory effect”.

Turning to `CN(C)CC(=O)OCCn1cc(-c2cc3nccc(Oc4ccc(NC(=O)C5(C(=O)Nc6ccc(F)cc6)CC5)cc4F)c3s2)cn1` [td32-4P3, 2-(4-(7-(2-fluoro-4-(1-((4-fluorophenyl)carbamoyl)cyclopropane-1-carboxamide)phenoxy)thieno[3,2-b]pyridin-2-yl)-1H-pyrazolyl-1-yl)ethyldimethyl glycinate], in [1] (oral 10 mg·kg^−1), the “conversion into td32-4 in vivo” value is on record as “rapidly converted”. The “time to almost complete conversion into td32-4 in vivo” value in series [1] was ≤ 18 h. For the same molecule, the “Water solubility test Result” value in series [2] is on record as “C (1 g of solute is soluble in 10~30 mL of sovent)”. The “tumor inhibitory effect (tumor volume)” value in series [4] is “potent tumor inhibitory effect”.

As to `CCC(C)C(N)C(=O)OCCn1cc(-c2cc3nccc(Oc4ccc(NC(=O)C5(C(=O)Nc6ccc(F)cc6)CC5)cc4F)c3s2)cn1` (centres unmarked) [td32-4P9, 2-(4-(7-(2-fluoro-4-(1-(4-fluorophenyl)carbamoyl)cyclopropane-1-carboxamide)phenoxy)thieno[3,2-b]pyridin-2-yl)-1H-pyrazolyl-1-yl)ethyl isoleucinate], in series [2], the “Water solubility test Result” value is given as “D (1 g of solute is soluble in 30~100 mL of sovent)”. Also, the “tumor inhibitory effect (tumor volume)” value in [4] is listed as “potent tumor inhibitory effect”.

With `O=C(Nc1ccc(F)cc1)C1(C(=O)Nc2ccc(Oc3ccnc4cc(-c5cnn(CCO)c5)sc34)c(F)c2)CC1` [td32-4], the inhibitory activity result in [7], in series [10] and in series [12] was “potent inhibitory activity” in each case. For the same molecule, the anti-proliferative activity entry in series [8] is reported as “potent anti-proliferative activity”. Further, the “Water solubility test Result” value in series [2] is “G (1 g of solute is insoluble in 10000 mL of solvent)”. Further, in [9], the “oral bioavailability F” value is recorded as 71.6%. The “tumor inhibitory effect (tumor volume)” value in [4] is “did not show significant activity”. Further, the water solubility entry in series [11] is “extremely poor water solubility”.
